In ChEMBL document CHEMBL1150947, “Indole alkaloids from the tunicate Aplidium meridianum” (J Nat Prod, 1998):

Test: Cytotoxicity against mouse LMM3 cells
Format: functional, cell-based

Row | Structure (SMILES) | IC50 [µM]
1 | Nc1nccc(-c2c[nH]c3cc(Br)cc(O)c23)n1 [MERIDIANIN B] | 11.4
2 | Nc1nccc(-c2c[nH]c3ccc(Br)cc23)n1 [MERIDIANIN C] | 9.3
